From patent US8932597B2 (priority 2008, dated 2015)

tested on: anti-M2 human monoclonal antibody Z3G1; assay type: binding

| Substance | Signal (peptides that bind to Z3G1) | Signal (peptides that show specific binding to Z3G1) |
| --- | --- | --- |
| 1475 (CETPIRNEWGSLLTEVETPCEVETPIRNE; epitope peptide; MISC_FEATURE (1)..(1): C is an attachment site for a CLIP; MISC_FEATURE (10)..(10): G is an attachment site for a CLIP; MISC_FEATURE (11)..(11): S is an attachment site for a CLIP; MISC_FEATURE (29)..(29): E is an attachment site for a CLIP) [compound 1475] | 2642 | – |
| 1299 (MSLLTEVATPIRNEWGCRCN; epitope peptide) [compound 1299] | 2633 | – |
| 1382 (CLLTEVETCIRNEWG; epitope peptide) [compound 1382] | 2296 | – |
| 1287 (MSLLLEVETPIRNEWGCRCN; epitope peptide) [compound 1287] | 2804 | – |
| 1368 (SLLTEVETPCRNE; epitope peptide) [compound 1368] | 1665 | – |
| 1324 (MCLLCEVETPIRNE; epitope peptide) [compound 1324] | 2038 | – |
| 1341 (MSLLCEVGMSLLCEV; epitope peptide) [compound 1341] | 2851 | – |
| 1558 (SCLCECGSLLCEV; epitope peptide) [compound 1558] | – | 1747 |
| 1390 (SLLCEVETPIRCEWG; epitope peptide) [compound 1390] | 2601 | – |
| 1320 (MCLLTEVETPCRNE; epitope peptide) [compound 1320] | 2404 | – |
| 1392 (SLLCEVETPCRNEWG; epitope peptide) [compound 1392] | 2465 | – |
| 1306 (MSLLTEVLTPIRNEWGCRCN; epitope peptide) [compound 1306] | 2714 | – |
| 1266 (MYLLTEVETPIRNEWGCRCN; epitope peptide) [compound 1266] | 1960 | – |
| 1373 (SLLCEVETPIRNEWGC; epitope peptide) [compound 1373] | 2281 | – |
| 1270 (MSLDTEVETPIRNEWGCRCN; epitope peptide) [compound 1270] | 2594 | – |
| 1481 (CVETPIRNEWLLTEVETPICEVETPIRNE; epitope peptide; MISC_FEATURE (1)..(1): C is an attachment site for a CLIP; MISC_FEATURE (10)..(10): W is an attachment site for a CLIP; MISC_FEATURE (11)..(11): L is an attachment site for a CLIP; MISC_FEATURE (29)..(29): E is an attachment site for a CLIP) [compound 1481] | 1592 | – |
| 1288 (MSLLMEVETPIRNEWGCRCN; epitope peptide) [compound 1288] | 2847 | – |
| 1365 (SLLCEVETCIRNE; epitope peptide) [compound 1365] | 2305 | – |
| 1348 (MSLCTEVGCSCLCEV; epitope peptide) [compound 1348] | 2001 | – |
| 1367 (SLLCEVCTPIRNE; epitope peptide) [compound 1367] | 2283 | – |

| Substance | Signal (peptides that bind to Z3G1) | Signal (peptides that show specific binding to Z3G1) |
| --- | --- | --- |
| 1343 (CSCLCEVGMSLLCEV; epitope peptide) [compound 1343] | 1945 | – |
| 1395 (SLLCEVCTPIRNEWG; epitope peptide) [compound 1395] | 2384 | – |
| 1552 (SLLCEVGSLCTEV; epitope peptide) [compound 1552] | – | 2722 |
| 1252 (MELLTEVETPIRNEWGCRCN; epitope peptide) [compound 1252] | 2679 | – |
| 1446 (CETPIRNEWGLLTEVETPICLTEVETPIR; epitope peptide; MISC_FEATURE (1)..(1): C is an attachment site for a CLIP; MISC_FEATURE (10)..(10): G is an attachment site for a CLIP; MISC_FEATURE (11)..(11): L is an attachment site for a CLIP; MISC_FEATURE (29)..(29): R is an attachment site for a CLIP) [compound 1446] | 2367 | – |
| 1571 (NLLTEVETPIRNEWGCRCNDSSD; epitope peptide) [compound 1571] | – | 2135 |
| 1325 (MSLLCEVETPIRNC; epitope peptide) [compound 1325] | 2823 | – |
| 1572 (PLLTEVETPIRNEWGCRCNDSSD; epitope peptide) [compound 1572] | – | 1641 |
| 1290 (MSLLPEVETPIRNEWGCRCN; epitope peptide) [compound 1290] | 2728 | – |
| 1591 (SLLYEVETPIRNEWGCRCNDSSD; epitope peptide) [compound 1591] | – | 2181 |
| 1273 (MSLMTEVETPIRNEWGCRCN; epitope peptide) [compound 1273] | 2804 | – |
| 1584 (SLLIEVETPIRNEWGCRCNDSSD; epitope peptide) [compound 1584] | – | 1899 |
| 1583 (SLLHEVETPIRNEWGCRCNDSSD; epitope peptide) [compound 1583] | – | 2462 |
| 1386 (SLCCEVETPIRNEWG; epitope peptide) [compound 1386] | 1603 | – |
| 1297 (MSLLTQVETPIRNEWGCRCN; epitope peptide) [compound 1297] | 1697 | – |
| 1443 (CTEVETPIRNLLTEVETPICLTEVETPIR; epitope peptide; MISC_FEATURE (1)..(1): C is an attachment site for a CLIP; MISC_FEATURE (10)..(10): N is an attachment site for a CLIP; MISC_FEATURE (11)..(11): L is an attachment site for a CLIP; MISC_FEATURE (29)..(29): R is an attachment site for a CLIP) [compound 1443] | 2213 | – |
| 1340 (MSCLTEVGMSLLCEV; epitope peptide) [compound 1340] | 2341 | – |
| 1262 (MQLLTEVETPIRNEWGCRCN; epitope peptide) [compound 1262] | 2526 | – |
| 1285 (MSLLIEVETPIRNEWGCRCN; epitope peptide) [compound 1285] | 2371 | – |
| 1566 (GLLTEVETPIRNEWGCRCNDSSD; epitope peptide) [compound 1566] | – | 2321 |

| Substance | Signal (peptides that bind to Z3G1) | Signal (peptides that show specific binding to Z3G1) |
| --- | --- | --- |
| 1478 (CLTEVETPIRLLTEVETPICEVETPIRNE; epitope peptide; MISC_FEATURE (1)..(1): C is an attachment site for a CLIP; MISC_FEATURE (10)..(10): R is an attachment site for a CLIP; MISC_FEATURE (11)..(11): L is an attachment site for a CLIP; MISC_FEATURE (29)..(29): E is an attachment site for a CLIP) [compound 1478] | 1681 | – |
| 1298 (MSLLTTVETPIRNEWGCRCN; epitope peptide) [compound 1298] | 2699 | – |
| 1304 (MSLLTEVITPIRNEWGCRCN; epitope peptide) [compound 1304] | 2668 | – |
| 1563 (DLLTEVETPIRNEWGCRCNDSSD; epitope peptide) [compound 1563] | – | 2320 |
| 1580 (SLLEEVETPIRNEWGCRCNDSSD; epitope peptide) [compound 1580] | – | 2420 |
| 1356 (CLLTEVETPCRNE; epitope peptide) [compound 1356] | 1991 | – |
| 1587 (SLLNEVETPIRNEWGCRCNDSSD; epitope peptide) [compound 1587] | – | 2425 |
| 1257 (MKLLTEVETPIRNEWGCRCN; epitope peptide) [compound 1257] | 2629 | – |
| 1459 (CTEVETPIRNLLTEVETPICTEVETPIRN; epitope peptide; MISC_FEATURE (1)..(1): C is an attachment site for a CLIP; MISC_FEATURE (10)..(10): N is an attachment site for a CLIP; MISC_FEATURE (11)..(11): L is an attachment site for a CLIP; MISC_FEATURE (29)..(29): N is an attachment site for a CLIP) [compound 1459] | 1749 | – |
| 1586 (SLLLEVETPIRNEWGCRCNDSSD; epitope peptide) [compound 1586] | – | 2344 |
| 1360 (CLLCEVETPIRNE; epitope peptide) [compound 1360] | 2314 | – |
| 1574 (RLLTEVETPIRNEWGCRCNDSSD; epitope peptide) [compound 1574] | – | 1338 |
| 1311 (MSLLTEVYTPIRNEWGCRCN; epitope peptide) [compound 1311] | 2181 | – |
| 1254 (MGLLTEVETPIRNEWGCRCN; epitope peptide) [compound 1254] | 2635 | – |
| 1381 (CLLTEVETPCRNEWG; epitope peptide) [compound 1381] | 2074 | – |
| 1512 (CTEVETPIRNLLTEVETPICETPIRNEWG; epitope peptide; MISC_FEATURE (1)..(1): C is an attachment site for a CLIP; MISC_FEATURE (10)..(10): N is an attachment site for a CLIP; MISC_FEATURE (11)..(11): L is an attachment site for a CLIP; MISC_FEATURE (29)..(29): G is an attachment site for a CLIP) [compound 1512] | – | 2645 |
| 1264 (MVLLTEVETPIRNEWGCRCN; epitope peptide) [compound 1264] | 2465 | – |
| 1268 (MSMLTEVETPIRNEWGCRCN; epitope peptide) [compound 1268] | 1329 | – |
